{
  "source": "patent US20140080868A1",
  "about": "“Methods for Treating HCV” (priority 2012, published 2014)",
  "type_in_all_cases": "cell-based",
  "key": {"[1]": {"test_system": "HCV replicon genotype 1a-H77", "assay": "Stable subgenomic replicon luciferase assay, genotype 1a-H77", "conditions": "Hepatitis C virus, luciferase reporter, 5% FBS, read-out: Mean EC50 ± Std. Dev."}, "[2]": {"test_system": "HCV replicon genotype 1b-Con1", "assay": "Stable subgenomic replicon luciferase assay, genotype 1b-Con1", "conditions": "Hepatitis C virus, luciferase reporter, 5% FBS, read-out: Mean EC50 ± Std. Dev."}, "[3]": {"test_system": "HCV replicon with NS5A from genotype 2a", "assay": "Stable chimeric 1b-Con1 replicon with NS5A from genotype 2a", "conditions": "Hepatitis C virus, read-out: Mean EC50 ± Std. Dev."}, "[4]": {"test_system": "HCV replicon with NS5A from genotype 2b", "assay": "Stable chimeric 1b-Con1 replicon with NS5A from genotype 2b", "conditions": "Hepatitis C virus, read-out: Mean EC50 ± Std. Dev."}, "[5]": {"test_system": "HCV replicon with NS5A from genotype 3a", "assay": "Stable chimeric 1b-Con1 replicon with NS5A from genotype 3a", "conditions": "Hepatitis C virus, read-out: Mean EC50 ± Std. Dev."}, "[6]": {"test_system": "HCV replicon with NS5A from genotype 4a", "assay": "Stable chimeric 1b-Con1 replicon with NS5A from genotype 4a", "conditions": "Hepatitis C virus, read-out: Mean EC50 ± Std. Dev."}, "[7]": {"test_system": "HCV replicon with NS5A from genotype 5a", "assay": "Stable chimeric 1b-Con1 replicon with NS5A from genotype 5a", "conditions": "Hepatitis C virus, read-out: Mean EC50 ± Std. Dev."}, "[8]": {"test_system": "HCV replicon with NS5A from genotype 6a", "assay": "Stable chimeric 1b-Con1 replicon with NS5A from genotype 6a", "conditions": "Hepatitis C virus, read-out: Mean EC50 ± Std. Dev."}, "[9]": {"test_system": "HCV replicon with NS5A genotype 2a wild type", "assay": "Transient chimeric replicon assay, genotype 2a WT", "conditions": "Hepatitis C virus, read-out: Average EC50", "excerpt": "(§1) Transiently replicating chimeric replicons containing NS5A from genotype 2-6 wild types or replicons containing variants within NS5A were constructed in the 1b-Con1 background. These replicons also contained a firefly luciferase reporter gene. Variants were introduced by site-directed mutagenesis using the Change-IT Multiple Mutation Site Directed Mutagenesis Kit (USB). After the mutagenesis was confirmed by sequence analysis, the plasmids were linearized with Scat restriction enzyme. The TranscriptAid T7 High Yield Transcription Kit (Fermentas) was used to transcribe the HCV subgenomic RNA from the plasmids. The RNA was transfected via electroporation into a Huh-7 derived cell line as described (see Middleton et al. and Tripathi et al., supra) except that 3×10^6 cells were electroporated with 15 μg of template RNA and the 96 well plate was seeded with 7.5×10^3 cells per well. Four hours post-transfection, the wells from one plate were harvested for luciferase measurement. […] Luciferin solution (50 μl, Promega) was added to each well, and luciferase activity was measured with a Victor II luminometer (Perkin-Elmer). The percent inhibition of HCV RNA replication was calculated for each compound concentration and the EC50 value was calculated using nonlinear regression curve fitting to the 4-parameter logistic equation and GraphPad Prism 4 software."}, "[10]": {"test_system": "HCV replicon with NS5A genotype 2a T24A variant", "assay": "Transient chimeric replicon assay, genotype 2a T24A", "conditions": "Hepatitis C virus, read-out: Average EC50", "excerpt": "as §1"}, "[11]": {"test_system": "HCV replicon with NS5A genotype 2b wild type", "assay": "Transient chimeric replicon assay, genotype 2b WT", "conditions": "Hepatitis C virus, read-out: Average EC50", "excerpt": "as §1"}, "[12]": {"test_system": "HCV replicon with NS5A genotype 2b L28F variant", "assay": "Transient chimeric replicon assay, genotype 2b L28F", "conditions": "Hepatitis C virus, read-out: Average EC50", "excerpt": "as §1"}, "[13]": {"test_system": "HCV replicon with NS5A genotype 3a wild type", "assay": "Transient chimeric replicon assay, genotype 3a WT", "conditions": "Hepatitis C virus, read-out: Average EC50", "excerpt": "as §1"}, "[14]": {"test_system": "HCV replicon with NS5A genotype 3a Y93H variant", "assay": "Transient chimeric replicon assay, genotype 3a Y93H", "conditions": "Hepatitis C virus, read-out: Average EC50", "excerpt": "as §1"}, "[15]": {"test_system": "HCV replicon with NS5A genotype 4a L30H variant", "assay": "Transient chimeric replicon assay, genotype 4a L30H", "conditions": "Hepatitis C virus, read-out: Average EC50", "excerpt": "as §1"}, "[16]": {"test_system": "HCV replicon with NS5A genotype 5a wild type", "assay": "Transient chimeric replicon assay, genotype 5a WT", "conditions": "Hepatitis C virus, read-out: Average EC50", "excerpt": "as §1"}, "[17]": {"test_system": "HCV replicon with NS5A genotype 5a L28I variant", "assay": "Transient chimeric replicon assay, genotype 5a L28I", "conditions": "Hepatitis C virus, read-out: Average EC50", "excerpt": "as §1"}, "[18]": {"test_system": "HCV replicon with NS5A genotype 5a L31F variant", "assay": "Transient chimeric replicon assay, genotype 5a L31F", "conditions": "Hepatitis C virus, read-out: Average EC50", "excerpt": "as §1"}, "[19]": {"test_system": "HCV replicon with NS5A genotype 6a wild type", "assay": "Transient chimeric replicon assay, genotype 6a WT", "conditions": "Hepatitis C virus, read-out: Average EC50", "excerpt": "as §1"}, "[20]": {"test_system": "HCV replicon with NS5A genotype 6a T58N variant", "assay": "Transient chimeric replicon assay, genotype 6a T58N", "conditions": "Hepatitis C virus, read-out: Average EC50", "excerpt": "as §1"}, "[21]": {"test_system": "HCV replicon with NS5A genotype 6a L31V variant", "assay": "Transient chimeric replicon assay, genotype 6a L31V", "conditions": "Hepatitis C virus, read-out: Average EC50", "excerpt": "as §1"}, "[22]": {"test_system": "HCV replicon with NS5A genotype 6a T58A variant", "assay": "Transient chimeric replicon assay, genotype 6a T58A", "conditions": "Hepatitis C virus, read-out: Average EC50", "excerpt": "as §1"}, "[23]": {"test_system": "stable subgenomic replicons with NS5A from HCV genotype 1a, 1b, 2a, 2b, 3a, 4a, 5a, and 6a", "assay": "Stable subgenomic replicons, genotype panel (summary statement)", "conditions": "Hepatitis C virus, read-out: EC50 values against stable subgenomic replicons with NS5A from a broad range of HCV genotypes"}, "[24]": {"test_system": "HCV variants that are resistant to other NS5A inhibitors", "assay": "Transient subgenomic replicon assays, resistant variant panel (summary statement)", "conditions": "Hepatitis C virus, read-out: EC50 values against HCV variants resistant to other NS5A inhibitors, transient subgenomic replicon assays", "excerpt": "as §1"}, "[25]": {"test_system": "HCV replicon with NS5A genotype 2b L31V variant", "assay": "Transient chimeric replicon assay, genotype 2b L31V", "conditions": "Hepatitis C virus, read-out: Average EC50", "excerpt": "as §1"}, "[26]": {"test_system": "HCV replicon with NS5A genotype 3a M28T variant", "assay": "Transient chimeric replicon assay, genotype 3a M28T", "conditions": "Hepatitis C virus, read-out: Average EC50", "excerpt": "as §1"}, "[27]": {"test_system": "HCV replicon with NS5A genotype 4a L28V variant", "assay": "Transient chimeric replicon assay, genotype 4a L28V", "conditions": "Hepatitis C virus, read-out: Average EC50", "excerpt": "as §1"}, "[28]": {"test_system": "HCV replicon with NS5A genotype 5a L31V variant", "assay": "Transient chimeric replicon assay, genotype 5a L31V", "conditions": "Hepatitis C virus, read-out: Average EC50", "excerpt": "as §1"}},
  "data": [
    {"smiles": "COC(=O)N[C@H](C(=O)N1CCC[C@H]1c1nc2cc([C@H]3CC[C@H](c4cc5nc([C@@H]6CCCN6C(=O)[C@@H](NC(=O)OC)[C@@H](C)OC)[nH]c5cc4F)N3c3cc(F)c(N4CCC(c5ccc(F)cc5)CC4)c(F)c3)c(F)cc2[nH]1)[C@@H](C)OC", "note": "[Compound 1, methyl {(2S,3R)-1-[(2S)-2-{5-[(2R,5R)-1-{3,5-difluoro-4-[4-(4-fluorophenyl)piperidin-1-yl]phenyl}-5-(6-fluoro-2-{(2S)-1-[N-(methoxycarbonyl)-O-methyl-L-threonyl]pyrrolidin-2-yl}-1H-benzimidazol-5-yl)pyrrolidin-2-yl]-6-fluoro-1H-benzimidazol-2-yl}pyrrolidin-1-yl]-3-methoxy-1-oxobutan-2-yl}carbamate]", "values": [
      {"measurement": "EC50", "setting": "[1]", "result": "0.0018 ± 0.0009", "unit": "nM"},
      {"measurement": "EC50", "setting": "[2]", "result": "0.0043 ± 0.0017", "unit": "nM"},
      {"measurement": "EC50", "setting": "[3]", "result": "0.0023 ± 0.0007", "unit": "nM"},
      {"measurement": "EC50", "setting": "[4]", "result": "0.0019 ± 0.0006", "unit": "nM"},
      {"measurement": "EC50", "setting": "[5]", "result": "0.0021 ± 0.0007", "unit": "nM"},
      {"measurement": "EC50", "setting": "[6]", "result": "0.0019 ± 0.0006", "unit": "nM"},
      {"measurement": "EC50", "setting": "[7]", "result": "0.0014 ± 0.0004", "unit": "nM"},
      {"measurement": "EC50", "setting": "[8]", "result": "0.0028 ± 0.0007", "unit": "nM"},
      {"measurement": "EC50", "setting": "[9]", "result": 0.0013, "unit": "nM"},
      {"measurement": "EC50", "setting": "[10]", "result": 0.0013, "unit": "nM"},
      {"measurement": "EC50", "setting": "[11]", "result": 0.001, "unit": "nM"},
      {"measurement": "EC50", "setting": "[12]", "result": 0.0011, "unit": "nM"},
      {"measurement": "EC50", "setting": "[13]", "result": 0.0018, "unit": "nM"},
      {"measurement": "EC50", "setting": "[14]", "result": 0.0043, "unit": "nM"},
      {"measurement": "EC50", "setting": "[15]", "result": 0.001, "unit": "nM"},
      {"measurement": "EC50", "setting": "[16]", "result": 0.0011, "unit": "nM"},
      {"measurement": "EC50", "setting": "[17]", "result": 0.001, "unit": "nM"},
      {"measurement": "EC50", "setting": "[18]", "result": 0.0019, "unit": "nM"},
      {"measurement": "EC50", "setting": "[19]", "result": 0.0014, "unit": "nM"},
      {"measurement": "EC50", "setting": "[20]", "result": 0.0025, "unit": "nM"},
      {"measurement": "EC50", "setting": "[21]", "result": 0.001, "unit": "nM"},
      {"measurement": "EC50", "setting": "[22]", "result": 0.0015, "unit": "nM"},
      {"measurement": "EC50", "setting": "[23]", "result": "< 10000", "unit": "nM"},
      {"measurement": "EC50", "setting": "[24]", "result": "< 5000", "unit": "nM"}
    ]},
    {"smiles": "COC(=O)N[C@H](C(=O)N1CCC[C@H]1C(=O)Nc1ccc([C@@H]2CC[C@@H](c3ccc(NC(=O)[C@@H]4CCCN4C(=O)[C@@H](NC(=O)OC)C(C)C)cc3)N2c2ccc(C(C)(C)C)cc2)cc1)C(C)C", "note": "[reference compound, reference compound]", "values": [
      {"measurement": "EC50", "setting": "[9]", "result": 0.0034, "unit": "nM"},
      {"measurement": "EC50", "setting": "[10]", "result": 0.092, "unit": "nM"},
      {"measurement": "EC50", "setting": "[11]", "result": 0.0011, "unit": "nM"},
      {"measurement": "EC50", "setting": "[12]", "result": 0.039, "unit": "nM"},
      {"measurement": "EC50", "setting": "[25]", "result": 0.427, "unit": "nM"},
      {"measurement": "EC50", "setting": "[13]", "result": 0.0072, "unit": "nM"},
      {"measurement": "EC50", "setting": "[26]", "result": 3.03, "unit": "nM"},
      {"measurement": "EC50", "setting": "[14]", "result": "> 100", "unit": "nM"},
      {"measurement": "EC50", "setting": "[27]", "result": 0.0053, "unit": "nM"},
      {"measurement": "EC50", "setting": "[17]", "result": 0.072, "unit": "nM"},
      {"measurement": "EC50", "setting": "[18]", "result": 0.263, "unit": "nM"},
      {"measurement": "EC50", "setting": "[28]", "result": 0.221, "unit": "nM"},
      {"measurement": "EC50", "setting": "[19]", "result": 0.08, "unit": "nM"},
      {"measurement": "EC50", "setting": "[20]", "result": 8.47, "unit": "nM"},
      {"measurement": "EC50", "setting": "[21]", "result": 5.04, "unit": "nM"},
      {"measurement": "EC50", "setting": "[22]", "result": 1.15, "unit": "nM"}
    ]}
  ]
}
